In this assay the test system is T1, MnP (manganese peroxidase).
T1 construct: gene MNP1; commercial recombinant enzyme (Sigma Aldrich), expressed in corn
The experiment in a line: UV/Vis quinone formation at […] nm, Michaelis-Menten fit. The settings on record: with 1 mM Mn(II); 0.05% H2O2; 0.1 M sodium acetate pH 4.5; 25 °C; 50 µM MnP; 8 min; apparent, oxidation may be mediated by Mn(III). In kind it is biochemical, Phanerochaete chrysosporium.

Each structure is given as a SMILES string.

For orientation: Km means the concentration of substrate that gives half-maximal velocity. Turning to `O=C(O)c1cc(O)c(O)c(O)c1` [gallic acid], the Km is 660 µM.
In the case of `Oc1cccc(O)c1O` [pyrogallol], the Km came out at 280 µM.

The values above are taken from article PMC12029925, “Kinetics of Manganese Peroxidase Using Simple Phenolic Compounds as Substrates” (Metabolites, 2025).
